The source of these data is patent publication US4816459A, “Tetrazolyl-substituted pyrido[1,2-a]pyrimidines and use as SRS-A antagonists” (Tokyo Tanabe Co. Ltd., priority 1985, dated 1989).

The IC50 is the concentration that gives 50% inhibition. A high value points to lower potency. The LD50 is the dose expected to kill half of the subjects tested.

Each structure is given as a SMILES string. Values after ≈ are worked out from the molar mass of the structure shown. Counter-ions that a name gives are not always drawn. Where only a bound is given, the exact number is not on record here.

One data set concerns SRS-A. Conditions: Japanese Journal of Allergology 1984; cited from earlier work.
Data set [1] has as its system SRS-A as represented by leukotriene D4. As to the kind of experiment: Confirmatory experiment: antagonistic effect on SRS-A as represented by leukotriene D4. Conditions: confirmatory experiment by the inventors.
The subject of data set [2] is leukotriene D4-induced airway constriction reaction. As to the kind of experiment: Inhibition of leukotriene D4-induced Type I allergic reaction (airway constriction), Konzett-Rossler procedure, intravenous injection. The class given is in vivo, guinea pig (male, Hartley strain). Particulars: Cavia porcellus, 2 min, leukotriene D4 0.5 μg/kg i.v. 2 minutes later, 50% inhibition of airway constriction, read-out: Inhibitory effect on Type I allergic reaction ID50 (intravenous). The protocol:
(§1) Using male guinea pigs of the Hartley strain, weighing about 400 g, in groups of six, the inhibitory effect of the present compounds [I] and physiologically acceptable salts thereof on a Type I allergic reaction induced by leukotriene D4 was tested in two dosage forms (i.e., by intravenous injection and by oral administration) according to the Konzett-Rossler procedure [Naunyn-Schmiederbergs Archiv fur Experimentelle Pathologie und Pharmakologie, Vol. 195, p. 71, 1940]. Specifically, each guinea pig was anesthetized by intraperitoneal administration of 1.5 g/kg of urethane and an incision was made in the neck to expose the trachea. To the exposed trachea was connected a respirator (with a ventilation volume of 5-7 ml, a respiration rate of 70 per minute, and a pulmonary load pressure of 10 cmH2 O; manufactured by Ugo Basile Biological Research Apparatus Co.) by way of a cannula. The volume of air overflowing through the branch of the cannula was measured by means of a Model 7020 Bronchospasm Transducer (manufactured by Ugo Basile Biological Research Apparatus Co.) and recorded with a Model RM-6000 Polygraph (manufactured by Nippon Koden Co., Ltd.).
Intravenous injection tests were carried out as follows: Each guinea pig was treated by intravenous injection of 1 mg/kg of gallamine triethiodide. Then, 20.0 to 6000.0 μg/kg of a test compound and 0.5 μg/kg of leukotriene D4 were successively administered thereto through the cervical vein with an interval of 2 minutes. The volume of air overflowing as a result of the induced airway constriction reaction was measured. The test compound was used in the form of a solution in physiological saline containing sodium hydrogen carbonate or potassium carbonate.
(§2) Both in the intravenous injection tests and in the oral administration tests, leukotriene D4 was used in the form of a solution in physiological saline.
(§3) Both in the intravenous injection tests and in the oral administration tests, the pharmacological effect on the Type I allergic reaction was evaluated in terms of the dose of the test compound at which the airway constriction reaction induced by leukotriene D4 was inhibited by 50% (hereinafter referred to as ID50), provided that ID50 was expressed in μg/kg for the intravenous injection tests and in mg/kg for the oral administration tests. […] On the basis of the data thus obtained, a dose-response curve was prepared and used to determine the ID50 value of the test compound.
(§4) Among the test compounds indicated, the compounds of Examples 1, 6 and 9 used in the intravenous injection tests were prepared according to procedure a described in the respective examples, and those used in the oral administration tests were prepared according to procedure b.

A further data set has as its system leukotriene D4. Description: Antagonistic effect on leukotriene D4 in excised guinea pig terminal ileum (in vitro, inhibition of contraction). Particulars: Cavia porcellus, leukotriene D4 0.3 ng/ml, 50% inhibition of contraction. The class given is cell-based, guinea pig (male, Hartley strain). As for the experimental part:
Specifically, the terminal ileum was suspended, under aerated conditions, in 10 ml of Tyrode's solution containing 5×10^-7 M atropine and 1×10^-6 M mepyramine. Then, a test compound and leukotriene D4 (manufactured by Wako Junyaku Co., Ltd.) were successively added thereto with an interval of 30 seconds.
Specifically, at varying concentrations of each test compound, the percent inhibition of contraction was calculated from the measured degree of contraction of the ileum according to the following equation: [formula] On the basis of the data thus obtained, a dose-response curve was prepared and used to determine the IC50 value of the test compound.

Data set [3] is described as follows: Acute toxicity (LD50) in rats. Conditions: rat, in vivo, male SD strain rats. The protocol: (§5) The acute toxicity (LD50) of several typical examples of the present compounds [I] and physiologically acceptable salts thereof was tested on 5-weeks-old male ddY strain mice and male SD strain rats. For this purpose, the compounds of Examples 1, 6 and 9 were selected as typical examples. […] For rats, their LD50 values were not less than 4.0 g/kg when administered orally, and not less than 200 mg/kg when administered intravenously.

Data set [4] relates to leukotriene D4-induced airway constriction reaction. As to the kind of experiment: Inhibition of leukotriene D4-induced Type I allergic reaction (airway constriction), Konzett-Rossler procedure, oral administration. The class given is in vivo, guinea pig (male, Hartley strain). Conditions: Cavia porcellus; oral 90 minutes before anesthesia; leukotriene D4 0.5 μg/kg i.v.; 50% inhibition of airway constriction; read-out: Inhibitory effect on Type I allergic reaction ID50 (oral). The protocol:
as §1
Oral administration tests were carried out as follows: 1 to 30 mg/kg of a test compound was orally administered to each guinea pig 90 minutes before anesthesia with urethane. Then, the anesthetized guinea pig was treated by intravenous injection of 1 mg/kg of gallamine triethiodide and administration of 0.5 μg/kg of leukotriene D4 through the cervical vein. The volume of air overflowing as a result of the induced airway constriction reaction was measured.
as §2, §3, §4

Data set [5] can be described thus: Acute toxicity (LD50) in mice. Particulars: mouse, in vivo, 5-weeks-old male ddY strain mice. The protocol: as §5
Where [6] appears, read: intravenous, read-out: LD50, intravenous, rats.
Where [7] appears, read: oral, read-out: LD50, oral, rats.
[8] abbreviates: intravenous, read-out: LD50, intravenous, mice.
Setting [9] is: oral, read-out: LD50, oral, mice.

For the compound `Cc1cccn2c(=O)c(-c3nnn[nH]3)cnc12.[K]` [Compound TBX, 9-Methyl-3-(1H-tetrazol-5-yl)-4H-pyrido[1,2-a]pyrimidin-4-one potassium salt, reference compound], the “type of SRS-A drug (in words)” value with SRS-A is recorded as “belongs to the SRS-A release suppression type”. The “antagonistic effect on SRS-A as represented by leukotriene D4 (in words)” value in data set [1] was “no antagonistic effect”. In data set [2], the ED50 was at least 10 mg/kg. Moreover, in the data set on leukotriene D4, 200 µg/mL corresponded to half-maximal inhibition (IC50).

As for `CCCc1c(OCc2cccn3c(=O)c(-c4nnn[nH]4)cnc23)ccc(C(C)=O)c1O` [Example 1, 9-[(4-acetyl-3-hydroxy-2-n-propylphenoxy)methyl]-3-(1H-tetrazol-5-yl)-4H-pyrido[1,2-a]-pyrimidin-4-one], the LD50 is at least 200 mg/kg in data set [3] (setting [6]), at least 4000 mg/kg in data set [3] (setting [7]), at least 100 mg/kg in data set [5] (setting [8]) and at least 4000 mg/kg in data set [5] (setting [9]). For the same compound, the ED50 in data set [4] is 9 mg/kg; in data set [2], 0.097 mg/kg. In the data set with leukotriene D4, this compound yielded an IC50 of 0.03 µg/mL (≈ 0.0714 µM).

For the compound `CCCc1c(OCc2ccc3ncc(-c4nnn[nH]4)c(=O)n3c2)ccc(C(C)=O)c1O` [Example 2, 7-[(4-acetyl-3-hydroxy-2-n-propylphenoxy)methyl]-3-(1H-tetrazol-5-yl)-4H-pyrido[1,2-a]pyrimidin-4-one], the ED50 in data set [2] turned out to be 0.16 mg/kg. This compound gave a half-maximal inhibitory concentration (IC50) with leukotriene D4 of 0.1 µg/mL (≈ 0.238 µM).

As to `CCCc1c(OCc2ccn3c(=O)c(-c4nnn[nH]4)cnc3c2)ccc(C(C)=O)c1O` [Example 3, 8-[(4-acetyl-3-hydroxy-2-n-propylphenoxy)methyl]-3-(1H-tetrazol-5-yl)-4H-pyrido[1,2-a]pyrimidin-4-one], in data set [2], the ED50 turned out to be 0.17 mg/kg. The same compound returned an IC50 with leukotriene D4 of 0.2 µg/mL (≈ 0.476 µM).

`CCCc1c(OCc2cc(Br)cn3c(=O)c(-c4nnn[nH]4)cnc23)ccc(C(C)=O)c1O` [Example 4, 9-[(4-acetyl-3-hydroxy-2-n-propylphenoxy)methyl]-7-bromo-3-(1H-tetrazol-5-yl)-4H-pyrido[1,2-a]pyrimidin-4-one]: the ED50 in data set [2] amounted to 4.9 mg/kg. Inhibition with leukotriene D4 was half-maximal at 1 µg/mL (≈ 2 µM) (IC50).

For the compound `CCCc1c(OCc2cc(C)cn3c(=O)c(-c4nnn[nH]4)cnc23)ccc(C(C)=O)c1O` [Example 5, 9-[(4-acetyl-3-hydroxy-2-n-propylphenoxy)methyl]-7-methyl-3-(1H-tetrazol-5-yl)-4H-pyrido[1,2-a]pyrimidin-4-one], in the data set on leukotriene D4, the IC50 was determined as 0.8 µg/mL (≈ 1.84 µM).

Consider `CCCc1c(OCc2cccn3c(=O)c(Cc4nnn[nH]4)cnc23)ccc(C(C)=O)c1O` [Example 6, 9-[(4-acetyl-3-hydroxy-2-n-propylphenoxy)methyl]-3-[(1H-tetrazol-5-yl)methyl]-4H-pyrido[1,2-a]pyrimidin-4-one], for which the 50% lethal dose (LD50) in data set [3] (setting [6]) was at least 200 mg/kg; in data set [3] (setting [7]), at least 4000 mg/kg; in data set [5] (setting [8]), at least 100 mg/kg; in data set [5] (setting [9]), at least 4000 mg/kg. For the same compound, the ED50 in data set [4] amounted to 10 mg/kg; in data set [2], 0.11 mg/kg. The compound also showed a 50% inhibitory concentration (IC50) in the data set with leukotriene D4 of 0.01 µg/mL (≈ 0.023 µM).

With `CCCc1c(OCc2ccc3ncc(Cc4nnn[nH]4)c(=O)n3c2)ccc(C(C)=O)c1O` [Example 7, 7-[(4-acetyl-3-hydroxy-2-n-propylphenoxy)methyl]-3-[(1H-tetrazol-5-yl)methyl]-4H-pyrido[1,2-a]pyrimidin-4-one], the 50% inhibitory concentration (IC50) in the data set on leukotriene D4 worked out at 0.1 µg/mL (≈ 0.23 µM).

Take `CCCc1c(OCc2cc(C)cn3c(=O)c(Cc4nnn[nH]4)cnc23)ccc(C(C)=O)c1O` [Example 8, 9-[(4-acetyl-3-hydroxy-2-n-propylphenoxy)methyl]-7-methyl-3-[(1H-tetrazol-5-yl)methyl]-4H-pyrido[1,2-a]pyrimidin-4-one]: the ED50 in data set [2] turned out to be 1.9 mg/kg. For the same compound, the IC50 with leukotriene D4 came to 0.7 µg/mL (≈ 1.56 µM).

For the compound `CCCc1c(OCc2cccn3c(=O)c(CCc4nnn[nH]4)cnc23)ccc(C(C)=O)c1O` [Example 9, 9-[(4-acetyl-3-hydroxy-2-n-propylphenoxy)methyl]-3-[2-(1H-tetrazol-5-yl)ethyl]-4H-pyrido[1,2-a]pyrimidin-4-one], the median lethal dose (LD50) in data set [3] (setting [6]) is at least 200 mg/kg; in data set [3] (setting [7]), at least 4000 mg/kg; in data set [5] (setting [8]), at least 100 mg/kg; in data set [5] (setting [9]), at least 4000 mg/kg. Moreover, the figures for the ED50 in data set [4] and in data set [2] were 5 mg/kg and 0.038 mg/kg, respectively. The compound further registered an IC50 in the data set on leukotriene D4 of 0.005 µg/mL (≈ 0.0111 µM).

`CCCc1c(OCc2ccn3c(=O)c(CCc4nnn[nH]4)cnc3c2)ccc(C(C)=O)c1O` [Example 10, 8-[(4-acetyl-3-hydroxy-2-n-propylphenoxy)methyl]-3-[2-(1H-tetrazol-5-yl)ethyl]-4H-pyrido[1,2-a]pyrimidin-4-one] came in with an IC50 with leukotriene D4 of 0.6 µg/mL (≈ 1.34 µM).

On to `CCCc1c(OCc2cc(Br)cn3c(=O)c(CCc4nnn[nH]4)cnc23)ccc(C(C)=O)c1O` [Example 11, 9-[(4-acetyl-3-hydroxy-2-n-propylphenoxy)methyl]-7-bromo-3-[2-(1H-tetrazol-5yl)ethyl]-4H-pyrido[1,2-a]pyrimidin-4-one], for which, in data set [2], the ED50 was found to be 2.9 mg/kg. The same compound returned an IC50 with leukotriene D4 of 0.9 µg/mL (≈ 1.71 µM).

`CCCc1c(OCc2cccn3c(=O)c(-c4nn[nH]n4)cnc23)ccc(C(C)=O)c1O` [Example 12, 9-[(4-acetyl-3-hydroxy-2-n-propylphenoxy)methyl]-3-(1H-tetrazol-5-yl)-4H-pyrido[1,2-a]pyrimidin-4-one potassium salt]: the ED50 amounted to 10 mg/kg in data set [4] and 0.097 mg/kg in data set [2]. The compound also had an IC50 with leukotriene D4 of 0.03 µg/mL.
